This note sets out measurements from US10464925B2, “Methods to induce targeted protein degradation through bifunctional molecules” (Dana-Farber Cancer Institute, Inc., priority 2015, dated 2019).

Read-outs that look alike come from different tables or passages of the source.

Assay [1] concerns the target T1, CRBN-DDB1 (Homo sapiens, UniProt Q96SW2).
T1 construct: 6xHis (given for the complex); made in house; host or cells: Sf9 cells (Invitrogen), pFastBac
Nature of the assay: CRBN-DDB1 Ligand-Displacement AlphaScreen Assay (thalidomide competition).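 Further: streptavidin donor and nickel chelate acceptor bead proximity signal after 30 min incubation, normalized with no-protein background as 0% and DMSO wells as 100% activity.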 Type of assay: binding. For orientation: Bead proximity is the source of the signal in Alpha formats.

Assay [2] concerns IKZF1 adjoined to nanoluciferase (Nluc). Nature of the assay: IKZF1 Dual Luciferase Assay. Details: Nluc/Fluc IKZF1 Max Degradation: unit: %. As to conditions: 293 FT cells, 4 hours; for IC50: read-out: Nluc/Fluc IKZF1 IC50. Type of assay: cell-based.
Assay [3] concerns the target BRDT (Homo sapiens, UniProt Q58F21). Description: BRDT IC50 (Table 4). It is filed as binding. The conditions noted are these: read-out: IC50 (nM) BRDT.
Assay [4] deals with T2, BRD4 adjoined to nanoluciferase (Nluc) (Homo sapiens, UniProt O60885+Q96SW2).
T2 construct: expressed in transfected cells
Nature of the assay: BRD4 Dual Luciferase Assay.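 On all read-outs here: transduced reporter cells exposed to compound for 4 h, then Nluc and Fluc luminescence read, each normalized to DMSO controls and expressed as Nluc/Fluc ratio per well.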 Type of assay: cell-based. As to conditions: for Emax: BRD4 remaining at Emax, read-out: BRD4− Emax (percent remaining).

Assay [5] concerns the target T3, BRD4 (Homo sapiens, UniProt O60885). Description: BRD4 Cell Western (BRD4 levels in 293T cells, LiCOR). Further details: BRD4 levels in the cells after the dBET treatment; endogenous in cells. The conditions noted are these: HEK-293T; read-out: BRD4 max degradation(%) Cell Western. It is filed as cell-based.
The subject of assay [6] is CUTL1. Description: Cell viability, ATPlite 48 hours, CUTLL1. The conditions noted are these: CUTL1 cells. It is filed as cell-based. (In ATP-based viability assays light output follows the ATP content of the culture.)
In assay [7] the test system is DND41. Nature of the assay: Cell viability, ATPlite 48 hours, DND41. Type of assay: cell-based. The conditions noted are these: DND41 cells.
For assay [8], the system named is MOLT4. Nature of the assay: Cell viability, ATPlite 48 hours, MOLT4. It is filed as cell-based. As to conditions: Homo sapiens, MOLT-4; MOLT4 cells.
For assay [9], the system named is NGP. Nature of the assay: Cell viability, ATPlite 72 hours. It is filed as cell-based. As to conditions: NGP cells, Table 4; read-out: IC50 (nM) NGP.
For assay [10], the target named is T4, CRBN (Homo sapiens, UniProt Q96SW2).
T4 construct: endogenous in cells
Nature of the assay: Intracellular CRBN Engagement Assay (dFKBP7 rescue). It is filed as cell-based. As to conditions: competition with 80 nM dFKBP7, 3 hours; read-out: FKBP7 rescue (EC50).

Assay [11] concerns the target T3, BRD4. Nature of the assay: BRD4 AlphaScreen. Further details: […]; His tag (inferred from capture on Ni-coated acceptor beads). Type of assay: binding.
Assay [12] relates to 797. Nature of the assay: Cell viability, 797 cells (Table 4). It is filed as cell-based. The conditions noted are these: read-out: IC50 (nM) 797.
Where [13] appears, read: 4 hours, read-out: max degradation (dual luc).
Setting [14] is: read-out: BRD4 max degradation(%) Dual Luciferase.
Where [15] appears, read: biotin-thalidomide competition, read-out: THAL ALPHA (IC50).

As for `CC(=O)Nc1ccc2c(c1)C(=O)N(C1CCC(=O)NC1=O)C2=O` [Compound D-5, N-(2-(2,6-dioxopiperidin-3-yl)-1,3-dioxoisoindolin-5-yl)acetamide], the IC50 was 0.266 µM in assay [1] (read-out: CRBN alpha IC50) and above 50 µM in assay [2].
As for `Cc1nc2ccccc2c(=O)n1C1CCC(=O)NC1=O` [Compound D-9, 3-(2-methyl-4-oxoquinazolin-3(4H)-yl)piperidine-2,6-dione], in assay [1] (read-out: CRBN alpha IC50), the IC50 was 14.5 µM. In addition, in assay [2], the “Nluc/Fluc IKZF1 Max Degradation” value turned out to be 67.23.
For `O=C1CCC(N2C(=O)c3cccc([N+](=O)[O-])c3C2=O)C(=O)N1` [Compound D-10, 2-(2,6-dioxopiperidin-3-yl)-4-nitroisoindoline-1,3-dione], the IC50 in assay [1] (read-out: CRBN alpha IC50) was 3.25 µM; in assay [2], above 50 µM.
The matching figures for `Cc1nc2ccccc2c(=O)n1C1CC(=O)NC1=O` [Compound D-11, 3-(2-methyl-4-oxoquinazolin-3(4H)-yl)pyrrolidine-2,5-dione]: 126 µM and above 50 µM.
The matching figures for `O=C1CCC(N2C(=O)c3cccc(F)c3C2=O)C(=O)N1` [Compound D-14, 2-(2,6-dioxopiperidin-3-yl)-4-fluoroisoindoline-1,3-dione]: 0.608 µM and above 50 µM.
The like results for `O=C1CCC(N2C(=O)c3ccc(C(=O)NCc4ccccc4)cc3C2=O)C(=O)N1` [Compound D-15, N-benzyl-2-(2,6-dioxopiperidin-3-yl)-1,3-dioxoisoindoline-5-carboxamide] were, in that order, 0.619 µM and above 50 µM.
Take `O=C1CCC(N2C(=O)c3cccc(NCc4ccccc4)c3C2=O)C(=O)N1` [Compound D-16, 4-(benzylamino)-2-(2,6-dioxopiperidin-3-yl)isoindoline-1,3-dione]: in assay [1] (read-out: CRBN alpha IC50), the IC50 was 0.0714 µM. Besides, the “Nluc/Fluc IKZF1 Max Degradation” value in assay [2] came to 67.23.
Regarding `CC(C)Nc1cccc2c1C(=O)N(C1CCC(=O)NC1=O)C2=O` [Compound D-18, 2-(2,6-dioxopiperidin-3-yl)-4-(isopropylamino)isoindoline-1,3-dione], the IC50 in assay [1] (read-out: CRBN alpha IC50) stood at 0.0253 µM. Besides, the “Nluc/Fluc IKZF1 Max Degradation” value in assay [2] worked out at 41.1.
The matching figures for `Cc1cccc2c1C(=O)N(C1CCC(=O)NC1=O)C2=O` [Compound D-19, 2-(2,6-dioxopiperidin-3-yl)-4-methylisoindoline-1,3-dione]: 0.147 µM and 63.37.
As for `CCN(CC)c1cccc2c1C(=O)N(C1CCC(=O)NC1=O)C2=O` [Compound D-21, 4-(diethylamino)-2-(2,6-dioxopiperidin-3-yl)isoindoline-1,3-dione], in [1] (read-out: CRBN alpha IC50), the IC50 turned out to be 0.164 µM. Further, in [2], the “Nluc/Fluc IKZF1 Max Degradation” value turned out to be 17.98.
The matching figures for `O=C1CCC(N2C(=O)c3cccc(CNC(=O)C4CC4)c3C2=O)C(=O)N1` [Compound D-22, N-((2-(2,6-dioxopiperidin-3-yl)-1,3-dioxoisoindolin-4-yl)methyl)cyclopropanecarboxamide]: 0.375 µM and 52.96.
As for `CC(=O)NCc1cccc2c1C(=O)N(C1CCC(=O)NC1=O)C2=O` [Compound D-23, N-((2-(2,6-dioxopiperidin-3-yl)-1,3-dioxoisoindolin-4-yl)methyl)acetamide], the IC50 in assay [1] (read-out: CRBN alpha IC50) amounted to 0.646 µM. The “Nluc/Fluc IKZF1 Max Degradation” value in assay [2] turned out to be 59.03.
Consider `O=C1CCC(N2C(=O)c3ccc(F)cc3C2=O)C(=O)N1` [Compound D-24, 2-(2,6-dioxopiperidin-3-yl)-5-fluoroisoindoline-1,3-dione], for which the results for the IC50 in [1] (read-out: CRBN alpha IC50) and in assay [2] were 0.493 µM and above 50 µM, respectively.
The matching figures for `O=C1CCC(N2C(=O)c3ccc(NCc4ccccc4)cc3C2=O)C(=O)N1` [Compound D-25, 5-(benzylamino)-2-(2,6-dioxopiperidin-3-yl)isoindoline-1,3-dione]: 0.0589 µM and above 50 µM.
On to `CC(C)Nc1ccc2c(c1)C(=O)N(C1CCC(=O)NC1=O)C2=O` [Compound D-26, 2-(2,6-dioxopiperidin-3-yl)-5-(isopropylamino)isoindoline-1,3-dione], for which the IC50 in [1] (read-out: CRBN alpha IC50) is 0.113 µM; in assay [2], above 50 µM.
The like results for `CCN(CC)c1ccc2c(c1)C(=O)N(C1CCC(=O)NC1=O)C2=O` [Compound D-27, 5-(diethylamino)-2-(2,6-dioxopiperidin-3-yl)isoindoline-1,3-dione] were, in that order, 0.2 µM and above 50 µM.
For `Cc1sc2c(c1C)C(c1ccc(Cl)cc1)=N[C@@H](CC(=O)NCCNC(=O)COc1cccc3c1C(=O)N(C1CCC(=O)NC1=O)C3=O)c1nnc(C)n1-2` (some centres unmarked) [dBET3], the IC50 in assay [3] was found to be 88 nM. Also, the “Conc@Emax” value in assay [4] was 0.5 µM. The figures for the Dmax in assay [4] (setting [13]), in assay [4] (setting [14]) and in assay [5] were 12.7%, 13% and 31.6%, respectively. Moreover, the Emax in assay [4] came to 84%.
Take `CC[C@@H]1C(=O)N(C)c2cnc(Nc3ccc(C(=O)NCCCCCCCCNC(=O)COc4cccc5c4C(=O)N(C4CCC(=O)NC4=O)C5=O)cc3OC)nc2N1C1CCCC1` (some centres unmarked) [dBET8]: the IC50 was 820 nM in [3]; 42 nM in assay [6]; 47.2 nM in assay [7]; 88.5 nM in [8]; 153 nM in assay [9].
`Cc1noc(C)c1-c1ccc(-c2nc3cnccn3c2NCC(=O)NCCCCNC(=O)COc2cccc3c2C(=O)N(C2CCC(=O)NC2=O)C3=O)cc1` (centres unmarked) [dBET13]: the IC50 was determined as 0.0107 µM in [1] (setting [15]), 6930 nM in [11] (read-out: BRD4 Alpha (IC50)) and 6930 nM in assay [11] (read-out: IC50 (nM) BRD4). The EC50 in assay [10] came to 220 µM.
As to `Cc1noc(C)c1-c1ccc(-c2nc3cnccn3c2NCC(=O)NCCCOCCOCCOCCCNC(=O)COc2cccc3c2C(=O)N(C2CCC(=O)NC2=O)C3=O)cc1` (centres unmarked) [dBET14], the IC50 in assay [1] (setting [15]) stood at 0.0124 µM; in assay [11] (read-out: BRD4 Alpha (IC50)) it was 8830 nM; in [11] (read-out: IC50 (nM) BRD4), 8830 nM. Further, the EC50 in assay [10] came to 227 µM.
In the case of `Cc1sc2c(c1C)C(c1ccc(C#N)cc1)=N[C@@H](CC(=O)NCCCCNC(=O)COc1cccc3c1C(=O)N(C1CCC(=O)NC1=O)C3=O)c1nnc(C)n1-2` (some centres unmarked) [dBET17], the IC50 in [3] is 217 nM; in assay [12] it was 5020 nM; in [6] it was above 20000 nM; in assay [7], 17300 nM; in assay [8] it was 13500 nM; in assay [9] it was above 20000 nM.
Regarding `Cc1c(CC#N)sc2c1C(c1ccc(Cl)cc1)=N[C@@H](CC(=O)NCCCCNC(=O)COc1cccc3c1C(=O)N(C1CCC(=O)NC1=O)C3=O)c1nnc(C)n1-2` (some centres unmarked) [dBET19], the IC50 in [3] was 1130 nM; in [12], above 20000 nM; in [1] (setting [15]), 0.00362 µM; in assay [11] (read-out: BRD4 Alpha (IC50)) it was 212 nM; in [11] (read-out: IC50 (nM) BRD4) it was 212 nM. Moreover, the Dmax in [4] (setting [13]) is -1.3%; in assay [4] (setting [14]), above 5%. Moreover, the Emax in assay [4] amounted to 93.3%. Further, the EC50 in assay [10] turned out to be 4330 µM.
Take `Cc1sc2c(c1C)C(c1ccc(Cl)cc1)=N[C@@H](CC(=O)NCCCCOc1cccc3c1C(=O)N(C1CCC(=O)NC1=O)C3=O)c1nnc(C)n1-2` (some centres unmarked) [dBET28]: the Dmax was below 5% in assay [4] (setting [13]) and above 5% in assay [4] (setting [14]). The Emax in assay [4] was found to be 91.2%. In addition, the IC50 in assay [1] (setting [15]) came out at 0.0171 µM. The EC50 in assay [10] worked out at 7.73 µM.
With `Cc1c(C(=O)NCCCCNC(=O)COc2cccc3c2C(=O)N(C2CCC(=O)NC2=O)C3=O)sc2c1C(c1ccc(Cl)cc1)=N[C@@H](CC(=O)NCCCN1CCN(C)CC1)c1nnc(C)n1-2` (some centres unmarked) [dBET30], the “Conc@Emax” value in assay [4] stood at 50 µM. The figures for the Dmax in assay [4] (setting [13]) and in assay [4] (setting [14]) were 78.5% and 79%, respectively. For the same molecule, the Emax in assay [4] came to 26.2%. For the same molecule, the IC50 in [1] (setting [15]) is 0.0265 µM. Moreover, in [10], the EC50 was 3140 µM.
As to `Cc1cnc(Nc2ccc(N3CCN(C(=O)CCC(=O)NCCCCNC(=O)COc4cccc5c4C(=O)N(C4CCC(=O)NC4=O)C5=O)CC3)cc2)nc1Nc1cccc(S(=O)(=O)NC(C)(C)C)c1` (centres unmarked) [dBET32], the figures for the IC50 in assay [12], in [11] (read-out: BRD4 Alpha (IC50)) and in [11] (read-out: IC50 (nM) BRD4) were 5730 nM, 3300 nM and 3300 nM, respectively. Moreover, the Dmax in [4] (setting [13]) and in assay [4] (setting [14]) was 50% throughout.
With `Cc1cnc(Nc2ccc(N3CCN(C(=O)CCC(=O)NCCCCCCCCNC(=O)COc4cccc5c4C(=O)N(C4CCC(=O)NC4=O)C5=O)CC3)cc2)nc1Nc1cccc(S(=O)(=O)NC(C)(C)C)c1` (centres unmarked) [dBET33], the IC50 amounted to 4000 nM in assay [12], 4990 nM in assay [11] (read-out: BRD4 Alpha (IC50)) and 4990 nM in assay [11] (read-out: IC50 (nM) BRD4). Moreover, the Dmax in assay [4] (setting [13]) was 9.96%; in [4] (setting [14]), below 10%.
Consider `Cc1cnc(Nc2ccc(N3CCN(C(=O)CCC(=O)NCCCOCCOCCOCCCNC(=O)COc4cccc5c4C(=O)N(C4CCC(=O)NC4=O)C5=O)CC3)cc2)nc1Nc1cccc(S(=O)(=O)NC(C)(C)C)c1` (centres unmarked) [dBET34], for which the figures for the IC50 in assay [12], in [11] (read-out: BRD4 Alpha (IC50)) and in [11] (read-out: IC50 (nM) BRD4) were 3920 nM, 1540 nM and 1540 nM, respectively. In addition, the Dmax in assay [4] (setting [13]) and in assay [4] (setting [14]) was 24% throughout.

One may read the Emax as the maximal effect, on the per cent scale that the assay sets. Broadly, the EC50 is the concentration giving half of the maximal effect.
